Data reported in ChEMBL document CHEMBL5729293, “Inhibitors of KEAP1-Nrf2 protein-protein interaction” (2022).

Assay: Fluorescence Based Assay: The details of the KEAP1 KELCH ThermoFluor® Assay Construct are as follows: Kelch domain of human KEAP 1 (321-624 aa) was used in the assay. The protein was expressed in E. coli with 6His tag that was cleaved prior to receipt for use.ThermoFluor® experiments were carried out using instruments owned by Janssen Research and Discovery, L.L.C. through its acquisition of 3-Dimensional Pharmaceuticals, Inc. 1,8-ANS (Invitrogen) was used as a fluorescent dye. Protein (KEAP Kelch) and compound solutions were dispensed into black 384-well polypropylene PCR microplates (Abgene) and overlayed with silicone oil (1 μL, Fluka, type DC 200) to prevent evaporation.Reference wells contained KEAP Kelch without compounds, and the assay conditions were as follows: 1.1 μM (0.037mg/mL) KEAP Kelch, 80 μM 1,8-ANS, 25 mM PIPES, pH 7.0, 100 mM NaCl, 0.002% Tween-20.

Question: Which Kd does the source give for `Cc1ccc([C@H](c2ccn3c(C(F)F)nnc3c2C)C(C)(C)C(=O)O)nc1CN1CC2(CC2)Oc2nc(OCCN3CCCCC3)c(C)cc2S1(=O)=O` here?
Answer: The Kd was less than 1 nM.

Question: Which Kd does the source give for `Cc1cnc([C@@H](c2ccn3c(C(F)(F)F)nnc3c2C)C(C)(C)C(=O)O)cc1CN1CC2(CC2)Oc2nc(OCCN3CCCCC3)c(C)cc2S1(=O)=O` here?
Answer: Its Kd is less than 1 nM.

Question: Which Kd does the source give for `Cc1ccc([C@H](CC(=O)O)c2ccn3c(C(F)(F)F)nnc3c2C)nc1CN1CC2(COC2)Oc2ncccc2S1(=O)=O` here?
Answer: Its Kd is less than 1 nM.

Question: For `Cc1ccc([C@H](CC(=O)O)c2ccn3c(C)nnc3c2)cc1CN1C[C@H]2CCCN2c2ncccc2S1(=O)=O`, which Kd is on record?
Answer: The Kd was less than 1 nM.

Question: Which Kd does the source give for `Cc1ccc([C@@H](c2ccn3c(C(F)F)nnc3c2C)C(C)(C)C(=O)O)cc1CN1CC2(CCOCC2)Oc2ncccc2S1(=O)=O` here?
Answer: Its Kd is less than 1 nM.

Question: With `CC[C@@H]1CN(Cc2cc([C@@H](CC(=O)O)c3ccn4c(C(F)F)nnc4c3C)ccc2C)S(=O)(=O)c2cccnc2O1` as the compound, how does the Kd read?
Answer: The Kd was less than 1 nM.

Question: Which Kd does the source give for `Cc1ccc([C@H](CC(=O)O)c2ccn3c(C(F)(F)F)nnc3c2C)cc1CN1C[C@H]2CCCCN2c2ncc(C#N)cc2S1(=O)=O` here?
Answer: Its Kd is less than 1 nM.

Question: With `Cc1ccc(C(CC(=O)O)c2ccc3c(nnn3CC3CC3)c2C)cc1CN1C[C@@H]2CCCCN2c2ncccc2S1(=O)=O` (some centres undefined) as the compound, how does the Kd read?
Answer: The Kd was less than 1 nM.

Question: Which Kd does the source give for `Cc1cnc2c(c1)S(=O)(=O)N(Cc1cc([C@@H](c3ccn4c(C(F)(F)F)nnc4c3C)C(C)(C)C(=O)O)ncc1C)CC1(CC1)O2` here?
Answer: The Kd was less than 1 nM.

Question: With `Cc1cnc2c(c1)S(=O)(=O)N(Cc1cc([C@@H](c3ccn4c(C(F)(F)F)nnc4c3C)C(C)(C)C(=O)O)ccc1C)CC1(CNC1)O2` as the compound, how does the Kd read?
Answer: The Kd was less than 1 nM.

Question: With `Cc1ccc([C@H](CC(=O)O)c2ccn3c(C(F)(F)F)nnc3c2C)cc1CN1C[C@H]2COCCN2c2ncc(C#N)cc2S1(=O)=O` as the compound, how does the Kd read?
Answer: Its Kd is less than 1 nM.

Question: For `Cc1ccc(C(c2ccn3c(C(F)(F)F)nnc3c2C)C(C)(C)C(=O)O)cc1CN1CC2(CCOCC2)Oc2nc(N[C@@H](C)CCO)ccc2S1(=O)=O` (some centres undefined), which Kd is on record?
Answer: Its Kd is less than 1 nM.

Question: Which Kd does the source give for `Cc1ccc(C(c2ccn3c(C(F)F)nnc3c2C)C(C)(C)C(=O)O)cc1CN1CC2(CCOCC2)Oc2ncccc2S1(=O)=O` (centres undefined) here?
Answer: Its Kd is less than 1 nM.

Question: With `Cc1ccc([C@H](CC(=O)O)c2ccn3c(C4CC4)nnc3c2C)cc1CN1C[C@H]2CCCN2c2ncccc2S1(=O)=O` as the compound, how does the Kd read?
Answer: Its Kd is less than 1 nM.

Question: With `CCn1nnc2c(C)c([C@H](c3ccc(C)c(CN4CC5(CCOCC5)Oc5ncccc5S4(=O)=O)n3)C(C)(C)C(=O)O)ccc21` as the compound, how does the Kd read?
Answer: The Kd was less than 1 nM.

Question: With `Cc1ccc([C@H](CC(=O)O)c2ccc3c(nnn3C3CC3)c2C)cc1CN1CC2(COC2)Oc2ccccc2S1(=O)=O` as the compound, how does the Kd read?
Answer: Its Kd is less than 1 nM.

Question: Which Kd does the source give for `CC[C@@H]1CN(Cc2cc(C(CC(=O)O)c3cc(OC(F)F)c4c(c3)nnn4C)ccc2C)S(=O)(=O)c2cccnc2O1` (some centres undefined) here?
Answer: The Kd was less than 1 nM.

Question: With `Cc1ccc([C@@H](CC(=O)O)c2ccn3c(C(F)(F)F)nnc3c2C)nc1CN1C[C@@H]2CCCCN2c2ncc(C#N)cc2S1(=O)=O` as the compound, how does the Kd read?
Answer: Its Kd is less than 1 nM.

Question: For `Cc1ccc([C@H](c2ccn3c(C(F)(F)F)nnc3c2C)C(C)(C)C(=O)O)cc1CN1CC2(CC2)Oc2nc(N[C@@H](C)CN3CCCCC3)c(C)cc2S1(=O)=O`, which Kd is on record?
Answer: Its Kd is less than 1 nM.

Question: With `Cc1ccc([C@@H](c2ccn3c(C(F)F)nnc3c2C)C(C)(C)C(=O)O)nc1CN1CC2(COC2)Oc2ncccc2S1(=O)=O` as the compound, how does the Kd read?
Answer: The Kd was less than 1 nM.

Question: For `Cc1ccc([C@@H](CC(=O)O)c2ccn3c(C(F)(F)F)nnc3c2C)cc1CN1CC2(COC2)Oc2ncccc2S1(=O)=O`, which Kd is on record?
Answer: The Kd was less than 1 nM.

Question: Which Kd does the source give for `Cc1ccc([C@@H](CC(=O)O)c2ccc3c(nnn3C3CC3)c2C)cc1CN1C[C@H]2CCCCN2c2ncccc2S1(=O)=O` here?
Answer: The Kd was less than 1 nM.

Question: For `Cc1ccc([C@H](CC(=O)O)c2ccn3c(C(F)(F)F)nnc3c2C)nc1CN1C[C@@H]2CCCCN2c2ncc(F)cc2S1(=O)=O`, which Kd is on record?
Answer: Its Kd is less than 1 nM.

Question: With `Cc1ccc([C@H](CC(=O)O)c2ccn3c(C(F)F)nnc3c2C)cc1CN1CC2(CC2)Oc2ncc(F)cc2S1(=O)=O` as the compound, how does the Kd read?
Answer: The Kd was less than 1 nM.

Question: For `Cc1ccc([C@@H](CC(=O)O)c2ccn3c(C(F)(F)F)nnc3c2C)nc1CN1C[C@H]2CCCCN2c2ncc(C#N)cc2S1(=O)=O`, which Kd is on record?
Answer: The Kd was less than 1 nM.

Question: Which Kd does the source give for `CCn1nnc2c(C)c([C@@H](CC(=O)O)c3ccc(C)c(CN4C[C@@H]5CCCCN5c5ncccc5S4(=O)=O)n3)ccc21` here?
Answer: The Kd was less than 1 nM.

Question: With `Cc1ccc([C@H](CC(=O)O)c2ccc3c(nnn3C3CC3)c2C)cc1CN1C[C@H]2CCCN2c2ncccc2S1(=O)=O` as the compound, how does the Kd read?
Answer: The Kd was less than 1 nM.

Question: Which Kd does the source give for `Cc1cc2cc([C@H](CC(=O)O)c3ccc(C)c(CN4C[C@@H]5CCCCN5c5ncccc5S4(=O)=O)c3)n(C)c2nn1` here?
Answer: Its Kd is less than 1 nM.

Question: Which Kd does the source give for `Cc1ccc([C@@H](CC(=O)O)c2ccn3c(C(F)(F)F)nnc3c2C)cc1CN1C[C@H]2CCCCN2c2ncccc2S1(=O)=O` here?
Answer: Its Kd is less than 1 nM.

Question: With `Cc1cnc2c(c1)S(=O)(=O)N(Cc1cc([C@@H](CC(=O)O)c3ccn4c(C(F)F)nnc4c3C)ccc1C)CC1(CC1)O2` as the compound, how does the Kd read?
Answer: Its Kd is less than 1 nM.

Question: For `CC[C@@H]1CN(Cc2nc(C(CC(=O)O)c3ccc4c(nnn4C4CC4)c3C)ccc2C)S(=O)(=O)c2cccnc2O1` (some centres undefined), which Kd is on record?
Answer: Its Kd is less than 1 nM.

Question: With `Cc1ccc([C@@H](CC(=O)O)c2cc(OC(F)F)c3c(c2)nnn3C)cc1CN1C[C@H]2CCCN2c2ncccc2S1(=O)=O` as the compound, how does the Kd read?
Answer: Its Kd is less than 1 nM.

Question: For `Cc1ccc(C(CC(=O)O)c2ccn3c(C)nnc3c2)cc1CN1CC(C)(C)Oc2ncccc2S1(=O)=O` (centres undefined), which Kd is on record?
Answer: Its Kd is less than 1 nM.

Question: Which Kd does the source give for `Cc1cnc2c(c1)S(=O)(=O)N(Cc1cc([C@@H](c3ccc4c(nnn4C4CC4)c3C)C(C)(C)C(=O)O)cnc1C)CC1(COC1)O2` here?
Answer: The Kd was less than 1 nM.

Question: For `Cc1ccc([C@@H](c2ccn3c(C(F)(F)F)nnc3c2C)C(C)(C)C(=O)O)cc1CN1CC2(CCOCC2)Oc2nc(CCC(=O)NCCOCCN)ccc2S1(=O)=O`, which Kd is on record?
Answer: The Kd was greater than 10000 nM.

Question: Which Kd does the source give for `Cc1ccc([C@@H](c2ccn3c(C(F)(F)F)nnc3c2C)C(C)(C)C(=O)O)cc1CN1CC2(CC2)Oc2nc(OCCN3CCC3)c(C)cc2S1(=O)=O` here?
Answer: The Kd was less than 1 nM.

Question: With `Cc1cnc2c(c1)S(=O)(=O)N(Cc1cc([C@@H](c3ccn4c(C(F)F)nnc4c3C)C(C)(C)C(=O)O)ccc1C)CC1(COC1)O2` as the compound, how does the Kd read?
Answer: Its Kd is less than 1 nM.

Question: Which Kd does the source give for `Cc1ccc(C(CC(=O)O)c2ccn3c(C(F)(F)F)nnc3c2C)cc1CN1C[C@@H]2CCCCN2c2ncccc2S1(=O)=O` (some centres undefined) here?
Answer: The Kd was less than 1 nM.

Question: For `Cc1cnc2c(c1)S(=O)(=O)N(Cc1nc([C@@H](CC(=O)O)c3ccn4c(C(F)(F)F)nnc4c3C)ccc1C)C[C@H]1CCCCN21`, which Kd is on record?
Answer: The Kd was less than 1 nM.

Question: Which Kd does the source give for `Cc1ccc([C@@H](c2ccn3c(C(F)(F)F)nnc3c2C)C(C)(C)C(=O)O)cc1CN1CC2(CCOCC2)Oc2nc(OC(C)CN3CCCCC3)c(C)cc2S1(=O)=O` (some centres undefined) here?
Answer: The Kd was less than 1 nM.

Question: Which Kd does the source give for `Cc1ccc(C(CC(=O)O)c2ccn3c(C(F)F)nnc3c2C)cc1CN1CC2CCCCN2c2ncc(C#N)cc2S1(=O)=O` (centres undefined) here?
Answer: The Kd was less than 1 nM.

Question: For `Cc1cnc2c(c1)S(=O)(=O)N(Cc1cc(C(CC(=O)O)c3ccn4c(C(F)F)nnc4c3C)ccc1C)C[C@@H]1CCCCN21` (some centres undefined), which Kd is on record?
Answer: The Kd was less than 1 nM.

Question: With `Cc1ccc([C@@H](CC(=O)O)c2ccn3c(C(F)F)nnc3c2C)cc1CN1C[C@@H]2CCCCN2c2ncc(C#N)cc2S1(=O)=O` as the compound, how does the Kd read?
Answer: The Kd was less than 1 nM.

Question: With `CCn1nnc2c(C)c(C(CC(=O)O)c3ccc(C)c(CN4C[C@@H]5CCCCN5c5ncccc5S4(=O)=O)n3)ccc21` (some centres undefined) as the compound, how does the Kd read?
Answer: The Kd was less than 1 nM.

Question: Which Kd does the source give for `Cc1ccc(C(CC(=O)O)c2ccn3c(C(F)(F)F)nnc3c2C)cc1CN1CC2(COC2)Oc2ccccc2S1(=O)=O` (centres undefined) here?
Answer: Its Kd is less than 1 nM.

Question: For `Cc1ccc([C@H](CC(=O)O)c2ccn3c(C(F)(F)F)nnc3c2C)nc1CN1C[C@@H]2CCCCN2c2ncc(Cl)cc2S1(=O)=O`, which Kd is on record?
Answer: Its Kd is less than 1 nM.

Question: With `Cc1ccc(C(CC(=O)O)c2ccc3c(nnn3C3CC3)c2C)cc1CN1CC2(COC2)Oc2ccccc2S1(=O)=O` (centres undefined) as the compound, how does the Kd read?
Answer: The Kd was less than 1 nM.

Question: Which Kd does the source give for `CCn1nnc2c(C)c([C@H](CC(=O)O)c3ccc(C)c(CN4C[C@H]5CCCN5c5ncccc5S4(=O)=O)n3)ccc21` here?
Answer: The Kd was less than 1 nM.

Question: For `Cc1ccc(C(c2cc(C)n3c(C(F)(F)F)nnc3c2C)C(C)C(=O)O)cc1CN1C[C@@H]2CCCCN2c2ncccc2S1(=O)=O` (some centres undefined), which Kd is on record?
Answer: The Kd was less than 1 nM.
